PubChem BioAssay (NCI)
Values joined by “and” are separate entries in the source; they are usually repeats but may differ in a detail not shown here. Equal entries are not always repeated.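 Step 1: Grow cells in 96-well plates. Step 2: Expose to compound for 48 hours at 5 concentrations. Step 3: Interpolate endpoints linearly; if unreached, use highest concentration. GI50 marks 50% less growth. TGI: concentration producing complete growth inhibition.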

What was measured:
Assay in all cases: NCI anticancer screen, dose series, 48 h
[1] = tested on: A498 renal
[2] = tested on: CCRF-CEM leukemia
[3] = tested on: EKVX NSCLC
[4] = tested on: HCT-15 colon
[5] = tested on: KM12 colon
[6] = tested on: NCI-H23 lung
[7] = tested on: OVCAR-4 ovarian
[8] = tested on: SK-MEL-2 melanoma
[9] = tested on: SN12C renal
[10] = tested on: U251 CNS

In the case of `CCOC(=O)CN1C(=O)c2cc([N+](=O)[O-])cc3cc([N+](=O)[O-])cc(c23)C1=O`, the TGI [1] is reported as > 100 µM, the TGI [2] is reported as 23.2 µM and the TGI [3] is reported as > 100 µM. The TGI [4] was > 100 µM, the TGI [5] was > 100 µM and the TGI [6] was > 100 µM. For the same molecule, the TGI [7] was > 100 µM, the TGI [8] was > 62.3 µM and the TGI [9] was > 100 µM. The TGI [10] was > 100 µM.

For `Cc1cccc2c1[nH]c(=O)c1c3ccccc3cn21`, the GI50 [1] was 16.1 µM, the TGI [1] was 42.1 µM and the GI50 [2] was 1.2 µM. For the same molecule, the TGI [2] was 12.6 µM, the GI50 [3] was 5.61 µM and the TGI [3] was 44.6 µM. The GI50 [4] was 5.25 µM, the TGI [4] was 31.7 µM and the GI50 [5] was 3.38 µM. It also gave a TGI [5] of 22.8 µM, a GI50 [6] of 17.2 µM and a TGI [6] of 38.6 µM. For the same molecule, the GI50 [7] was 6.73 µM, the TGI [7] was > 100 µM and the GI50 [8] was 14.4 µM. The TGI [8] was > 100 µM, the GI50 [9] was 1.81 µM and the TGI [9] was 18.8 µM. For the same molecule, the GI50 [10] was 6.57 µM and the TGI [10] was 19.4 µM.

In the case of `COCCNc1cncc(C(N)=O)c1`, the TGI [1] is reported as > 100 µM, the TGI [2] is reported as > 100 µM and the TGI [3] is reported as > 100 µM. For the same molecule, the TGI [4] was > 100 µM, the TGI [5] was > 100 µM and the TGI [6] was > 100 µM. For the same molecule, the TGI [7] was > 100 µM, the TGI [8] was > 100 µM and the TGI [9] was > 100 µM. The TGI [10] was > 100 µM.

With `CCOC(=O)/C=C/c1cccc(F)c1` the TGI [1] was > 100 µM, the TGI [2] was > 100 µM and the TGI [3] was > 100 µM. The TGI [4] was > 100 µM, the TGI [5] was > 100 µM and the TGI [6] was > 100 µM. The TGI [7] was > 100 µM, the TGI [8] was > 100 µM and the TGI [9] was > 100 µM. For the same molecule, the TGI [10] was > 100 µM.

For `CCC1=C(CC2NCCc3ccccc32)CC2c3cc(OC)c(OC)cc3CCN2C1` (stereo not given), the GI50 [1] was 4.25 µM, the TGI [1] was 19.6 µM and 5.8 µM and the GI50 [2] was 3.81 µM. The TGI [2] was 18.6 µM and 4.53 µM, the GI50 [3] was 4.81 µM and the GI50 [4] was 5.17 µM. For the same molecule, the TGI [4] was 30.8 µM and 20.4 µM, the GI50 [5] was 3.32 µM and the TGI [5] was 12.2 µM and 4.81 µM. The GI50 [6] was 5.2 µM, the TGI [6] was 35.9 µM and 13.1 µM and the GI50 [7] was 3.87 µM. The GI50 [8] was 4.64 µM, the TGI [8] was 16.6 µM and 2.64 µM and the GI50 [9] was 4.92 µM. For the same molecule, the TGI [9] was 35.6 µM and 7.34 µM, the GI50 [10] was 4.8 µM and the TGI [10] was 16.4 µM and 2.77 µM.

In the case of `O=C([O-])CC(=O)[O-].[NH-][C@@H]1CCCC[C@H]1[NH-].[Pt+4]`, the GI50 [1] is reported as 20.7 µM, the TGI [1] is reported as > 81.5 µM and the GI50 [2] is reported as 4.32 µM. The TGI [2] was > 100 µM, the GI50 [3] was > 100 µM and the TGI [3] was > 100 µM. The GI50 [4] was 9.61 µM, the TGI [4] was > 100 µM and the GI50 [5] was 85 µM. The TGI [5] was > 100 µM, the GI50 [6] was 16.9 µM and the TGI [6] was > 97.3 µM. The GI50 [7] was > 33.9 µM, the TGI [7] was > 100 µM and the GI50 [8] was 59.9 µM. For the same molecule, the TGI [8] was > 100 µM, the GI50 [9] was 15 µM and the TGI [9] was > 100 µM. The GI50 [10] was 17.4 µM and the TGI [10] was > 83.3 µM.

Molecule `CCn1c2ccccc2c2cc(C(=O)c3ccc(C)c4ccccc34)ccc21` has a GI50 [1] of 0.282 µM, a TGI [1] of 1.15 µM and a GI50 [2] of 0.359 µM. The TGI [2] was > 100 µM, the GI50 [3] was 0.528 µM and the TGI [3] was > 100 µM. For the same molecule, the GI50 [4] was 0.329 µM, the TGI [4] was > 100 µM and the GI50 [5] was 0.362 µM. The TGI [5] was 14.9 µM, the GI50 [7] was 3.32 µM and the TGI [7] was > 100 µM. It also gave a GI50 [8] of 0.324 µM, a TGI [8] of 1.81 µM and a GI50 [9] of 2.44 µM. For the same molecule, the TGI [9] was > 100 µM, the GI50 [10] was 0.278 µM and the TGI [10] was 1.52 µM.

With `C=C1C[C@@H]2C[C@@H](C)CC(O)[C@]2(CCCN)C1O` (stereo not given in full) the TGI [1] was > 100 µM, the TGI [2] was > 100 µM and the TGI [3] was > 100 µM. For the same molecule, the TGI [5] was > 100 µM, the TGI [6] was > 100 µM and the TGI [7] was > 100 µM. For the same molecule, the TGI [8] was > 100 µM, the TGI [9] was > 100 µM and the TGI [10] was > 100 µM.
